From the Kinase Knowledgebase extract (Sharma et al. 2016)

Target: PIK3CG (human) (UniProt P48736)
Experiment: Assessment of PIK3CG Kinase Activity

Chain of PIK3CG (human) (P48736 whole entry, looked up): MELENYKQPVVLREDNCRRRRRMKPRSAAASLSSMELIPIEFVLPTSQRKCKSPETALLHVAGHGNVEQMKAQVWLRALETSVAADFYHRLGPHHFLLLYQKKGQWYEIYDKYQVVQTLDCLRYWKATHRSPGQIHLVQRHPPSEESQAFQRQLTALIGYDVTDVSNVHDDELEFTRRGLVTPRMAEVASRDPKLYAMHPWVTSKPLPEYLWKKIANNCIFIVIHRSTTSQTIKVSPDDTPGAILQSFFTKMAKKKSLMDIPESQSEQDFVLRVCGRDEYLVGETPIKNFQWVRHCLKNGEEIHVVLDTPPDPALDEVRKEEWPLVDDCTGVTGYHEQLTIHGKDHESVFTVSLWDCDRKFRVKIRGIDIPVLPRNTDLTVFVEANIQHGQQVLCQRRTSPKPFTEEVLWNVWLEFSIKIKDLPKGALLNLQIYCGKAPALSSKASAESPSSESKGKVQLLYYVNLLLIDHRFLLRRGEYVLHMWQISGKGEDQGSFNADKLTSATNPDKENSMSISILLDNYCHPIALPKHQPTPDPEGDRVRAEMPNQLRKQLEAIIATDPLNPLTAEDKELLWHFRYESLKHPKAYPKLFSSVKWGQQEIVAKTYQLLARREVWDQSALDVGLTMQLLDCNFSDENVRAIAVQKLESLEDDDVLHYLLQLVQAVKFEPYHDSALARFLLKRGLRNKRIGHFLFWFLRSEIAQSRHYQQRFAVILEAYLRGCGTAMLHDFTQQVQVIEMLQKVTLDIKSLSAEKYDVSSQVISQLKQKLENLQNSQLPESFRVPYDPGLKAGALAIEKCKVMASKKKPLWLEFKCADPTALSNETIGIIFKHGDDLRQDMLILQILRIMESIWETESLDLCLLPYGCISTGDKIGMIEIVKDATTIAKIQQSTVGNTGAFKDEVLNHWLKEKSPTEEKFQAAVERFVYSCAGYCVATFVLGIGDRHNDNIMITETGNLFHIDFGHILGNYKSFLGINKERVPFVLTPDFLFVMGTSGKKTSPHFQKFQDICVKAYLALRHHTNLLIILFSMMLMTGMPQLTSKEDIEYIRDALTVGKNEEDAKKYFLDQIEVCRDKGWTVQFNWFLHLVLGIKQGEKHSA

Structure (SMILES)	Ki
COc1ccc(C#Cc2sc(NC(=O)NCCOCC3CC3)nc2C)cn1	50 to 250 nM
Cc1nc(NC(=O)NCCc2cn(CC(F)F)cn2)sc1C#Cc1ccccc1	50 to 250 nM
Cc1nc(NC(=O)N2CCC(OCc3ccccc3)C2)sc1C#Cc1ccncc1 (centres undefined)	50 to 250 nM
CCc1nc(NC(C)=O)sc1C#Cc1ccncc1	50 to 250 nM
CCOC(=O)CCCC(=O)Nc1nc(C)c(C#Cc2ccncc2)s1	50 to 250 nM
CC(=O)Nc1nc(C)c(C#Cc2ccsc2)s1	50 to 250 nM
Cc1nc(NC(=O)NCCCOCC2CC2)sc1C#Cc1ccncc1	50 to 250 nM
CC(=O)Nc1nc(C)c(C#Cc2cccc(N)c2)s1	50 to 250 nM
Cc1nc(NC(=O)NCCC(=O)N(C)CC(F)(F)F)sc1C#Cc1ccccc1	50 to 250 nM
Cc1nc(NC(=O)CCCC(=O)NC(C)(C)C)sc1C#Cc1ccncc1	50 to 250 nM
Cc1cc(O)nc(CCNC(=O)Nc2nc(C)c(C#Cc3ccncc3)s2)n1	50 to 250 nM
Cc1nc(NC(=O)NCCn2cnc(C(F)(F)F)c2)sc1C#Cc1ccncc1	50 to 250 nM
CC(=O)Nc1nc(C)c(C#Cc2ccc(Cl)nc2)s1	50 to 250 nM
Cc1nc(NC(=O)NCCOCC2CC2)sc1C#Cc1ccn(C)c(=O)c1	50 to 250 nM
COc1cccc(C#Cc2sc(NC(=O)NCCOCC3CC3)nc2C)c1	50 to 250 nM
Cc1nc(NC(=O)CCCc2cc[nH]c2)sc1C#Cc1ccncc1	50 to 250 nM
Cc1cccc(NC(=O)CC(=O)Nc2nc(C)c(C#Cc3ccncc3)s2)c1	50 to 250 nM
CC(=O)Nc1nc(C)c(C#Cc2cccnc2)s1	50 to 250 nM
Cc1nc(NC(=O)NCCOCC(F)(F)F)sc1C#Cc1ccncc1	50 to 250 nM
CC(=O)Nc1nc(C)c(C#Cc2ccccc2)s1	50 to 250 nM
COc1cccc(C#Cc2sc(NC(C)=O)nc2C)c1	50 to 250 nM
CC(=O)Nc1nc(C)c(C#Cc2ccc(N)cc2)s1	50 to 250 nM
Cc1nc(NC(=O)COc2ccccc2)sc1C#Cc1ccncc1	50 to 250 nM

Structure (SMILES)	Ki
CCOC(=O)[C@H]1CCC[C@H]1NC(=O)Nc1nc(C)c(C#Cc2ccncc2)s1	50 to 250 nM
Cc1nc(NC(=O)NCCC(=O)NCC(F)(F)F)sc1C#Cc1ccccc1	50 to 250 nM
COC(=O)CCCC(=O)Nc1nc(C)c(C#Cc2ccncc2)s1	50 to 250 nM
CC(=O)Nc1nc(C)c(C#Cc2cncc(C(F)(F)F)c2)s1	50 to 250 nM
Cc1nc(NC(=O)NCCOCC2CC2)sc1C#Cc1ccnn1C	50 to 250 nM
Cc1nc(NC(=O)NCCc2cn(CC(F)F)cn2)sc1C#Cc1ccccc1Cl	50 to 250 nM
Cc1nc(NC(=O)NCC(F)(F)F)sc1C#Cc1ccncc1	50 to 250 nM
Cc1nc(NC(=O)NC2COc3ccccc3C2)sc1C#Cc1ccncc1 (centres undefined)	50 to 250 nM
Cc1nc(NC(=O)NCCOCC2CC2)sc1C#Cc1ccc2nccnc2c1	< 50 nM
Cc1nc(NC(=O)CCCC(=O)NCC(F)(F)F)sc1C#Cc1ccncc1	50 to 250 nM
Cc1nc(NC(=O)NCCOCC2CC2)sc1C#Cc1cccc2ncccc12	< 50 nM
Cc1nc(NC(=O)NCCC2CCCCO2)sc1C#Cc1ccncc1 (centres undefined)	< 50 nM
COc1cc(C#Cc2sc(NC(=O)NCCOCC3CC3)nc2C)cc(OC)c1	50 to 250 nM
Cc1nc(NC(=O)NC[C@H](C)OCC2CC2)sc1C#Cc1ccc2ncccc2c1	< 50 nM
CCCn1cnc(CCNC(=O)Nc2nc(C)c(C#Cc3ccncc3)s2)c1	< 50 nM
Cc1nc(NC(=O)[C@@H]2CCC(=O)N2)sc1C#Cc1ccncc1	50 to 250 nM
Cc1nc(NC(=O)NCCOC(=O)c2ccccc2)sc1C#Cc1ccncc1	< 50 nM
Cc1nc(NC(=O)NCCOCC2CC2)sc1C#Cc1ccncc1F	< 50 nM
COC(=O)c1ccn2cc(CCNC(=O)Nc3nc(C)c(C#Cc4ccncc4)s3)nc2c1	50 to 250 nM
CC(=O)Nc1ccc(C#Cc2sc(NC(=O)NCCOCC3CC3)nc2C)cn1	50 to 250 nM
Cc1nc(NC(=O)NCCOCCN2CCOCC2)sc1C#Cc1ccncc1	50 to 250 nM
CC(=O)Nc1nc(C)c(C#Cc2cccc(F)c2)s1	50 to 250 nM
CCOC(=O)N1CCC(OC(=O)Nc2nc(C)c(C#Cc3ccncc3)s2)CC1	50 to 250 nM

Structure (SMILES)	Ki
Cc1nc(NC(=O)CCC(=O)OC(C)(C)C)sc1C#Cc1ccncc1	50 to 250 nM
Cc1nc(NC(=O)NCCOCC2CC2)sc1C#Cc1cncc(C(F)(F)F)c1	50 to 250 nM
Cc1nc(NC(=O)NCCc2ccncc2)sc1C#Cc1ccncc1	50 to 250 nM
CCOC(=O)CCCNC(=O)Nc1nc(C)c(C#Cc2ccncc2)s1	< 50 nM
COc1ccc(C#Cc2sc(NC(C)=O)nc2C)cc1	50 to 250 nM
COc1cc(C#Cc2sc(NC(=O)NCCn3cnc(C(F)(F)F)c3)nc2C)cnc1OC	< 50 nM
Cc1nc(NC(=O)NCC#N)sc1C#Cc1ccncc1	< 50 nM
CC(=O)N1CC(C(=O)Nc2nc(C)c(C#Cc3ccncc3)s2)C1	50 to 250 nM
COc1ccc(C#Cc2sc(NC(=O)NC[C@H](C)OCC3CC3)nc2C)cn1	< 50 nM
COc1cncc(C#Cc2sc(NC(=O)NC[C@H](C)OCC3CC3)nc2C)c1	< 50 nM
Cc1nc(NC(=O)NCCO)sc1C#Cc1ccncc1	< 50 nM
Cc1nc(NC(=O)NCCC2COCCO2)sc1C#Cc1ccncc1 (centres undefined)	< 50 nM
COc1cc(C#Cc2sc(NC(=O)NCCOc3ccccn3)nc2C)cnc1OC	< 50 nM
Cc1nc(NC(=O)NCCOc2ccccc2)sc1C#Cc1cccnc1	< 50 nM
Cc1nc(NC(=O)NCCc2ccccn2)sc1C#Cc1ccncc1	< 50 nM
Cc1nc(NC(=O)NCCOCC2CC2)sc1C#Cc1cnc2ccccc2c1	50 to 250 nM
Cc1nc(NC(=O)NCc2ccccn2)sc1C#Cc1ccncc1	< 50 nM
Cc1nc(NC(=O)NCCc2cn(CC(F)(F)F)cn2)sc1C#Cc1ccccc1	< 50 nM
Cc1nc(NC(=O)NC[C@H](C)OCC2CC2)sc1C#Cc1ccc2nccnc2c1	< 50 nM
Cc1nc(NC(=O)NCCC(=O)NC(C)(C)C)sc1C#Cc1ccncc1	< 50 nM
COc1cc(C#Cc2sc(NC(=O)NCCOc3cccnc3)nc2C)cnc1OC	< 50 nM
CC(=O)NCC(=O)Nc1nc(C)c(C#Cc2ccncc2)s1	< 50 nM

Continued, values first:

Ki	Structure (SMILES)
< 50 nM	Cc1nc(NC(=O)NCCOc2cccc(F)c2)sc1C#Cc1ccncc1
< 50 nM	COc1ccccc1OCCNC(=O)Nc1nc(C)c(C#Cc2ccncc2)s1
< 50 nM	Cc1nc(NC(=O)NCCOc2ccccc2)sc1C#Cc1ccncc1
< 50 nM	Cc1nc(NC(=O)NCCOCC2CC2)sc1C#Cc1ccc2nccn2c1
< 50 nM	COc1ccc(C#Cc2sc(NC(=O)NC[C@H](C)C(=O)NC(C)(C)C)nc2C)cn1
< 50 nM	Cc1nc(NC(=O)CCNC(=O)c2ccccn2)sc1C#Cc1cccnc1
< 50 nM	CCc1ccc(CCNC(=O)Nc2nc(C)c(C#Cc3ccncc3)s2)nc1
< 50 nM	COc1ccc(OCCNC(=O)Nc2nc(C)c(C#Cc3ccncc3)s2)cc1
< 50 nM	Cc1nc(NC(=O)NCCOCC2CC2)sc1C#Cc1cnc2ncccc2c1
< 50 nM	COc1ncc(C#Cc2sc(NC(=O)NCCOCC3CC3)nc2C)cn1
< 50 nM	CCOC(=O)CCNC(=O)Nc1nc(C)c(C#Cc2ccncc2)s1
< 50 nM	Cc1nc(NC(=O)NC[C@H](C)OCC2CC2)sc1C#Cc1cncc(F)c1
< 50 nM	Cc1nc(NC(=O)NCC2CCCO2)sc1C#Cc1ccncc1 (centres undefined)
< 50 nM	CCn1cnc(CCNC(=O)Nc2nc(C)c(C#Cc3ccncc3)s2)c1
< 50 nM	CCCO[C@@H](C)CNC(=O)Nc1nc(C)c(C#Cc2ccncc2)s1
< 50 nM	COCCNC(=O)Nc1nc(C)c(C#Cc2ccncc2)s1
< 50 nM	CCCOCCOC(=O)Nc1nc(C)c(C#Cc2ccncc2)s1
< 50 nM	Cc1cccc(OCCNC(=O)Nc2nc(C)c(C#Cc3ccncc3)s2)c1
< 50 nM	COc1cncc(C#Cc2sc(NC(=O)NC[C@H](C)O)nc2C)c1
< 50 nM	Cc1nc(NC(=O)NCCOc2ccc(F)cc2)sc1C#Cc1ccncc1
< 50 nM	Cc1nc(NC(=O)NCC[S+](C)[O-])sc1C#Cc1ccncc1 (centres undefined)
< 50 nM	Cc1nc(NC(=O)NCCOCC2CC2)sc1C#Cc1cccnc1Cl
< 50 nM	Cc1nc(NC(=O)CNC(=O)c2ccccn2)sc1C#Cc1cccnc1
< 50 nM	Cc1nc(NC(=O)NCCC(=O)NC(C)C)sc1C#Cc1ccncc1
< 50 nM	CCn1cc(CCNC(=O)Nc2nc(C)c(C#Cc3ccncc3)s2)cn1
< 50 nM	CCOCCNC(=O)Nc1nc(C)c(C#Cc2ccccc2)s1

Ki	Structure (SMILES)
< 50 nM	COC1CN(C(=O)Nc2nc(C)c(C#Cc3ccncc3)s2)C1
< 50 nM	Cc1nc(NC(=O)NCC2Cc3ccccc3O2)sc1C#Cc1ccncc1 (centres undefined)
< 50 nM	CCC(O)CNC(=O)Nc1nc(C)c(C#Cc2cncc(OC)c2)s1 (centres undefined)
< 50 nM	Cc1nc(NC(=O)NCCOCC2CCCC2)sc1C#Cc1ccncc1
< 50 nM	CCCO[C@@H](C)CNC(=O)Nc1nc(C)c(C#Cc2cncc(OC)c2)s1
< 50 nM	Cc1nc(NC(=O)NCCOCC2CC2)sc1C#Cc1cc(Cl)ncc1F
< 50 nM	CC(=O)Nc1nc(C)c(C#Cc2ccccc2C)s1
< 50 nM	COc1ccc(C#Cc2sc(NC(=O)NCCOCC3CC3)nc2C)cc1OC
< 50 nM	Cc1nc(NC(=O)NCCc2cn(CCF)cn2)sc1C#Cc1ccncc1
< 50 nM	CCn1c(C)nc(CCNC(=O)Nc2nc(C)c(C#Cc3ccncc3)s2)c1Cl
< 50 nM	COc1cc(C#Cc2sc(NC(=O)NCCOc3ccncc3)nc2C)cnc1OC
< 50 nM	COc1ccc(C#Cc2sc(NC(=O)NCCOCC3CC3)nc2C)nc1OC
< 50 nM	CCCCOCCCNC(=O)Nc1nc(C)c(C#Cc2ccncc2)s1
< 50 nM	CCc1ccc(CNC(=O)Nc2nc(C)c(C#Cc3ccncc3)s2)nc1
< 50 nM	CCCOCCNC(=O)Nc1nc(C)c(C#Cc2ccncc2)s1
< 50 nM	COc1cc(C#Cc2sc(NC(=O)NC[C@H](C)OCC3CC3)nc2C)cnc1OC
< 50 nM	Cc1nc(NC(=O)NCCC#N)sc1C#Cc1ccncc1
< 50 nM	CCc1cnn(CCNC(=O)Nc2nc(C)c(C#Cc3ccncc3)s2)c1
< 50 nM	Cc1ccc(OCCNC(=O)Nc2nc(C)c(C#Cc3ccncc3)s2)cc1
< 50 nM	Cc1nc(NC(=O)NCCc2cn(CC(F)F)cn2)sc1C#Cc1cccnc1
< 50 nM	Cc1nc(NC(=O)NCCn2cc(Cl)cn2)sc1C#Cc1ccncc1
< 50 nM	Cc1nc(NC(=O)NCCOCC2CC2)sc1C#Cc1cc(F)ncc1Cl
< 50 nM	Cc1nc(NC(=O)NCCOc2cccc(Cl)c2)sc1C#Cc1ccncc1
< 50 nM	Cc1nc(NC(=O)NCCc2ncn(CC(F)F)c2Cl)sc1C#Cc1ccncc1
< 50 nM	Cc1nc(NC(=O)NCCC(=O)c2ccccc2)sc1C#Cc1ccncc1
